This note sets out measurements from PubChem BioAssay (NCI).

Converted amounts (≈) assume the structure as drawn.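 Growth conditions: 96-well plates. Treatment: test compound, 48 hours, 5 concentrations. Analysis: linear interpolation between bracketing concentrations; unreached endpoints set to highest concentration. Here, GI50 denotes the concentration required for 50% inhibition of growth. The concentration for full growth arrest is given as TGI.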

Common to all, as to assay: DTP human tumour cell line panel, 48 h
Test [1] relates to HCC-2998 colon.
Test [2] has as its system NCI-H460 lung.
The test system of test [3] is OVCAR-3 ovarian.
In test [4] the test system is DU-145 prostate.
Test [5] relates to ACHN renal.
Test [6] deals with CAKI-1 renal.
Test [7] concerns M14 melanoma.
The test system of test [8] is KM12 colon.
The test system of test [9] is A498 renal.
Test [10] has as its system MOLT-4 leukemia.
Test [11] concerns HL-60(TB) leukemia.

By TGI is commonly meant the concentration giving total growth inhibition. The term GI50 denotes the concentration that inhibits growth by half.

For the compound `CCOC(=O)c1csc(NC(=O)C(C)N2CCCC2)n1` (stereo unspecified), the concentration for total growth inhibition (TGI) in test [1], in test [2], in test [3], in [4], in test [5] and in [6] was more than 100 µM in each case. Besides, the concentration for total growth inhibition (TGI) in test [7], in [8] and in test [9] was more than 100 µM each time.
On to `O=C1NN(C2=NNC3(C(=O)N2)c2ccccc2-c2ccccc23)C(c2ccccc2)=N/C1=C/c1ccc(Cl)cc1`, for which the GI50 was 48.7 µg/mL (≈ 89.3 µM) in test [2]; 29.5 µg/mL (≈ 54.2 µM) in [3]; 89.1 µg/mL (≈ 164 µM) in test [4]; 50.4 µg/mL (≈ 92.5 µM) in test [5]; 74.4 µg/mL (≈ 136 µM) in test [6]; 59.8 µg/mL (≈ 110 µM) in test [7]. In addition, the GI50 is 42.7 µg/mL (≈ 78.4 µM) in test [10], 33.4 µg/mL (≈ 61.3 µM) in test [8] and 50.1 µg/mL (≈ 91.9 µM) in test [11]. The total growth inhibition concentration (TGI) was more than 150 µg/mL in test [2]; 69.3 µg/mL in [3]; more than 150 µg/mL in test [4]; more than 150 µg/mL in [5]; more than 150 µg/mL in test [6]; more than 150 µg/mL in [7]. Further, the TGI in test [10] was more than 150 µg/mL; in test [8], 96.2 µg/mL; in test [11] it was more than 150 µg/mL.
For the compound `CC(=O)NNc1nc(C)c(C(=O)NNC(=O)C(=O)Nc2ccc([N+](=O)[O-])cc2[N+](=O)[O-])s1`, the total growth inhibition concentration (TGI) in test [1], in test [2], in test [5], in test [6], in test [7] and in test [10] was more than 100 µM throughout. Further, the TGI in test [8], in [11] and in test [9] was more than 100 µM each time.
For `COC(=O)C(Cc1cn(C(C)n2cc(CC(NC(C)=O)C(=O)OC)c3ccccc32)c2ccccc12)NC(C)=O` (stereo unspecified), the TGI in [1], in test [2], in test [3], in [4], in test [6] and in test [7] was more than 100 µM each time. The TGI in test [10], in test [8] and in test [9] was more than 100 µM throughout.
As to `CO/N=C1\CC(NC(=O)C(F)(F)F)c2ccsc21` (stereo unspecified), the TGI in [1], in test [2], in [3], in [4], in test [6] and in test [7] was more than 100 µM each time. In addition, the total growth inhibition concentration (TGI) in test [10], in test [11] and in test [9] was more than 100 µM each time.
In the case of `COC(=O)CC(=O)OSc1ccccc1`, the TGI in test [1] was 95 µM; in test [2] it was more than 100 µM; in [3] it was 36.4 µM; in [5], 56.5 µM; in test [7], 38.7 µM; in [10], more than 100 µM. For the same compound, the TGI in test [8] was more than 100 µM; in test [9], 65 µM.
As to `O=c1oc2ccccc2c(O)c1Cc1ccc(Cc2c(O)c3ccccc3oc2=O)cc1`, the TGI in test [1], in test [2], in test [3], in test [4], in [6] and in [7] was more than 100 µM in each case. For the same compound, the concentration for total growth inhibition (TGI) in test [10], in test [11] and in test [9] was more than 100 µM throughout.
